# PubChem BioAssay AID330 (DTP/NCI, 2004)
# Several values for one entry are separate records, joined by “and”; a condition that tells them apart may be missing. Equal values may be shown once. Inconclusive results and toxic doses are left out. Peptide text beside a SMILES is read from it. * marks the point of attachment. Cbz = O=C(OCc1ccccc1)*; Bn = c1ccc(C*)cc1
# System: P388 leukemia ip, CD2F1 mice, survival T/C
# Experiment: NCI In Vivo Anticancer Drug Screen. Data for tumor model P388 Leukemia (intraperitoneal) in CD2F1 (CDF1) mice
# Details: endpoint: median survival time, higher = longer survival
# How it was run: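 Mice carrying the transplanted tumor received test compound or vehicle. Survival was recorded in each group, and the value is the treated-group measurement divided by that of the vehicle-treated control group.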
# [1] = dose: 50.0 mg/kg/injection, schedule: Q01DX005 (ip), vehicle: saline with Tween-80
# [2] = dose: 100.0 mg/kg/injection, schedule: Q01DX005 (ip), vehicle: saline with Tween-80
# [3] = dose: 200.0 mg/kg/injection, schedule: Q01DX005 (ip), vehicle: saline with Tween-80
# [4] = dose: 50.0 mg/kg/injection, schedule: Q01DX005 (ip), vehicle: Klucel (hydroxypropylcellulose) (HPC)
# [5] = dose: 100.0 mg/kg/injection, schedule: Q01DX005 (ip), vehicle: Klucel (hydroxypropylcellulose) (HPC)
# [6] = dose: 200.0 mg/kg/injection, schedule: Q01DX005 (ip), vehicle: Klucel (hydroxypropylcellulose) (HPC)
# [7] = dose: 100.0 mg/kg/injection, schedule: Q01DX009 (ip), vehicle: Klucel (hydroxypropylcellulose) (HPC)
# [8] = dose: 200.0 mg/kg/injection, schedule: Q01DX009 (ip), vehicle: Klucel (hydroxypropylcellulose) (HPC)
# [9] = dose: 50.0 mg/kg/injection, schedule: Q01DX009 (ip), vehicle: Klucel (hydroxypropylcellulose) (HPC)
# [10] = dose: 50.0 mg/kg/injection, schedule: Q01DX005 (ip), vehicle: saline
# [11] = dose: 100.0 mg/kg/injection, schedule: Q01DX005 (ip), vehicle: saline
# [12] = dose: 200.0 mg/kg/injection, schedule: Q01DX005 (ip), vehicle: saline
structure (smiles),measurement,setting,value
COC(=O)C(Cc1c[nH]c2ccccc12)NC(=O)C(Cc1cnc[nH]1)N(C(=O)OCc1ccccc1)C(=O)OCc1ccccc1 (stereo not given),T/C,[1],100 % of control
same,T/C,[2],89 % of control
same,T/C,[3],98 % of control
CCOC(=O)CNC(=O)C(CSCc1ccccc1)NC(=O)C(NC(=O)OCc1ccccc1)C(C)C (stereo not drawn) (Cbz-Val-Cys(Bn)-Gly-OEt; configuration not given here),T/C,[4],98 % of control
same,T/C,[5],100 % of control
same,T/C,[6],88 % of control
CCCCn1c(CCC)nc([N+](=O)[O-])c1Sc1ncn[nH]1,T/C,"dose: 25.0 mg/kg/injection, schedule: Q01DX005 (ip), vehicle: Klucel (hydroxypropylcellulose) (HPC)",98 % of control
same,T/C,[4],117 % of control and 118 % of control
same,T/C,[5],114 % of control
same,T/C,[6],122 % of control and 123 % of control
Nc1c(-c2ccc(C3=NCCN3)cc2)[nH]c2cc(C3=NCCN3)ccc12,T/C,"dose: 6.25 mg/kg/injection, schedule: Q01DX005 (ip), vehicle: Klucel (hydroxypropylcellulose) (HPC)",100 % of control
same,T/C,"dose: 12.5 mg/kg/injection, schedule: Q01DX005 (ip), vehicle: Klucel (hydroxypropylcellulose) (HPC)",118 % of control
same,T/C,[4],196 % of control
CCOC(=O)N(C)O,T/C,[1],105 % of control
same,T/C,[2],107 % of control
same,T/C,[3],100 % of control
same,T/C,"dose: 400.0 mg/kg/injection, schedule: Q01DX005 (ip), vehicle: saline with Tween-80",100 % of control
COc1cc(CCN=Cc2cccc(OC)c2O)c([N+](=O)[O-])cc1OC,T/C,[4],93 % of control
same,T/C,[5],93 % of control
same,T/C,[6],93 % of control
O=C(Nc1ccc(Cl)cc1)OC1CCS(=O)(=O)C1 (stereo not given),T/C,[7],100 % of control
same,T/C,[8],89 % of control
COc1ccc(C(NCCn2cnc3c2c(=O)n(C)c(=O)n3C)c2ccccc2)cc1 (stereo not given),T/C,"dose: 6.25 mg/kg/injection, schedule: Q01DX005 (ip), vehicle: alkali diluted with saline",100 % of control
same,T/C,"dose: 12.5 mg/kg/injection, schedule: Q01DX005 (ip), vehicle: alkali diluted with saline",100 % of control
same,T/C,"dose: 25.0 mg/kg/injection, schedule: Q01DX005 (ip), vehicle: alkali diluted with saline",96 % of control
C1CCNCC1.O=C([CH-]C(=O)C(F)(F)F)c1ccc2c(c1)C(=O)c1ccccc1-2.O=C([CH-]C(=O)C(F)(F)F)c1ccc2c(c1)C(=O)c1ccccc1-2.O=C([CH-]C(=O)C(F)(F)F)c1ccc2c(c1)C(=O)c1ccccc1-2.O=C([CH-]C(=O)C(F)(F)F)c1ccc2c(c1)C(=O)c1ccccc1-2.[Eu+3],T/C,"dose: 12.5 mg/kg/injection, schedule: Q01DX009 (ip), vehicle: Klucel (hydroxypropylcellulose) (HPC)",112 % of control
same,T/C,"dose: 25.0 mg/kg/injection, schedule: Q01DX009 (ip), vehicle: Klucel (hydroxypropylcellulose) (HPC)",111 % of control
same,T/C,[9],110 % of control
CC1=CC(C)=Nc2ccccc2N1,T/C,"dose: 50.0 mg/kg/injection, schedule: Q01DX009 (ip), vehicle: saline",103 % of control
same,T/C,"dose: 100.0 mg/kg/injection, schedule: Q01DX009 (ip), vehicle: saline",99 % of control and 101 % of control
same,T/C,"dose: 200.0 mg/kg/injection, schedule: Q01DX009 (ip), vehicle: saline",94 % of control
CC(=O)C1SCC[S+]1C (stereo not given),T/C,"dose: 15.0 mg/kg/injection, schedule: Q01DX005 (ip), vehicle: saline",102 % of control
same,T/C,"dose: 30.0 mg/kg/injection, schedule: Q01DX005 (ip), vehicle: saline",102 % of control
same,T/C,"dose: 60.0 mg/kg/injection, schedule: Q01DX005 (ip), vehicle: saline",99 % of control and 106 % of control and 114 % of control
CNC(=S)N/N=C/CCCC/C=N/NC(=S)NC,T/C,"dose: 100.0 mg/kg/injection, schedule: Q01DX001 (ip), vehicle: saline",96 % of control
same,T/C,"dose: 200.0 mg/kg/injection, schedule: Q01DX001 (ip), vehicle: saline",96 % of control
same,T/C,"dose: 400.0 mg/kg/injection, schedule: Q01DX001 (ip), vehicle: saline",101 % of control
O=C(Nc1ccccc1[N+](=O)[O-])C1C(=O)C(=O)N(c2ccccc2[N+](=O)[O-])C1=O (stereo not given),T/C,[9],99 % of control
same,T/C,[7],108 % of control
same,T/C,[8],99 % of control
Cc1c(CNc2ccc(C(=O)NC(CC(=O)O)CC(=O)O)cc2)ccc2nc(N)nc(N)c12,T/C,"dose: 3.13 mg/kg/injection, schedule: Q04DX003 (ip), vehicle: saline",229 % of control
same,T/C,"dose: 12.5 mg/kg/injection, schedule: Q04DX003 (ip), vehicle: saline with Tween-80",118 % of control
same,T/C,"dose: 25.0 mg/kg/injection, schedule: Q04DX003 (ip), vehicle: saline with Tween-80",113 % of control
same,T/C,"dose: 33.0 mg/kg/injection, schedule: Q04DX003 (ip), vehicle: saline sonified",90 % of control
same,T/C,"dose: 50.0 mg/kg/injection, schedule: Q04DX003 (ip), vehicle: saline sonified",86 % of control
same,T/C,"dose: 50.0 mg/kg/injection, schedule: Q04DX003 (ip), vehicle: saline with Tween-80",159 % of control
C=CCCCC(C#N)c1ccc2c(c1)OCO2 (stereo not given),T/C,[10],105 % of control
same,T/C,[11],105 % of control
same,T/C,[12],101 % of control
O=C(O)C(Cc1cnc[nH]1)[N-]C[N-]C(Cc1cnc[nH]1)C(=O)O.[Pd+2] (stereo not given),T/C,[10],100 % of control
same,T/C,[11],97 % of control
same,T/C,[12],100 % of control
CC(=O)OCC(C)(C)COC1OCN(C(C)(C)C)CC1(C)C (stereo not given),T/C,"dose: 10.0 mg/kg/injection, schedule: Q01DX009 (ip), vehicle: saline with Tween-80",94 % of control
same,T/C,"dose: 20.0 mg/kg/injection, schedule: Q01DX009 (ip), vehicle: saline with Tween-80",104 % of control
same,T/C,"dose: 40.0 mg/kg/injection, schedule: Q01DX009 (ip), vehicle: saline with Tween-80",110 % of control
COc1ccc(CC(CO)NC(=O)c2ccccc2)cc1 (stereo not given),T/C,"dose: 100.0 mg/kg/injection, schedule: Q04DX002 (ip), vehicle: Klucel (hydroxypropylcellulose) (HPC)",101 % of control
same,T/C,"dose: 200.0 mg/kg/injection, schedule: Q04DX002 (ip), vehicle: Klucel (hydroxypropylcellulose) (HPC)",108 % of control
same,T/C,"dose: 400.0 mg/kg/injection, schedule: Q04DX002 (ip), vehicle: Klucel (hydroxypropylcellulose) (HPC)",94 % of control
CCN(CC)CCN=c1nc(/C=C\C=C\NN(C)C(=S)SC)c(C)nn1C,T/C,"dose: 6.25 mg/kg/injection, schedule: Q01DX005 (ip), vehicle: saline with Tween-80",103 % of control
same,T/C,"dose: 12.5 mg/kg/injection, schedule: Q01DX005 (ip), vehicle: saline with Tween-80",87 % of control
same,T/C,"dose: 25.0 mg/kg/injection, schedule: Q01DX005 (ip), vehicle: saline with Tween-80",89 % of control
same,T/C,[3],90 % of control
CC1OC(=O)c2cc3ccccc3nc21 (stereo not given),T/C,"dose: 60.0 mg/kg/injection, schedule: Q01DX005 (ip), vehicle: saline with Tween-80",93 % of control
same,T/C,"dose: 120.0 mg/kg/injection, schedule: Q01DX005 (ip), vehicle: saline with Tween-80",100 % of control
same,T/C,"dose: 240.0 mg/kg/injection, schedule: Q01DX005 (ip), vehicle: saline with Tween-80",93 % of control
CC1=C(Cl)C(=O)c2c(O)cccc2C1=O,T/C,"dose: 1.0 mg/kg/injection, schedule: Q01DX005 (ip), vehicle: Klucel + Tween-80",91 % of control
same,T/C,"dose: 2.0 mg/kg/injection, schedule: Q01DX005 (ip), vehicle: Klucel + Tween-80",94 % of control
same,T/C,"dose: 4.0 mg/kg/injection, schedule: Q01DX005 (ip), vehicle: Klucel + Tween-80",97 % of control
c1ccc(-c2c(-c3ccccc3)[c+]2-c2ccccc2)cc1,T/C,"dose: 100.0 mg/kg/injection, schedule: Q01DX001 (ip), vehicle: gum acacia",99 % of control
same,T/C,"dose: 200.0 mg/kg/injection, schedule: Q01DX001 (ip), vehicle: gum acacia",99 % of control
CC1=CCC[C@@H]2C1(C)CCC(C)[C@@]2(C)CC1=CC(=O)C=CC1=O (stereo not given in full),T/C,"dose: 0.62 mg/kg/injection, schedule: Q01DX005 (ip), vehicle: saline with Tween-80",99 % of control
same,T/C,"dose: 1.25 mg/kg/injection, schedule: Q01DX005 (ip), vehicle: saline with Tween-80",103 % of control
same,T/C,"dose: 2.5 mg/kg/injection, schedule: Q01DX005 (ip), vehicle: saline with Tween-80",99 % of control
same,T/C,"dose: 5.0 mg/kg/injection, schedule: Q01DX005 (ip), vehicle: saline with Tween-80",98 % of control
same,T/C,"dose: 10.0 mg/kg/injection, schedule: Q01DX005 (ip), vehicle: saline with Tween-80",103 % of control
